Consider eleven compounds from ChEMBL document CHEMBL1201862, “PubChem BioAssay data set” (2004).

Experiment [1] is described as follows: blockade of melanocortin 4 receptor signaling – cell-based, plate reader, cherry pick, counter-screen for LGR2 antagonist project, dose response (AID 743444).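 Further: transfected HEK 293 cells stimulated with alpha-MSH peptide; potency of inhibitors of the alpha-MSH evoked signal.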 Type of experiment: functional. A general note: The purpose of a counterscreen is to sort out artefacts and off-target activity.
Experiment [2] can be described thus: A549 cell cytotoxicity, dose response, cytotoxicity control, plate reader, cherry-pick, antagonist series (AID 743412). Type of experiment: functional, cell-based.
Experiment [3] is described as follows: blockers of bursicon-stimulated LGR2 cAMP reporter – cell-based, HEK293, CRE-luciferase reporter, cherry pick, set 2, dose response (AID 743343).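 Further: transfected cells were stimulated with diluted bursicon conditioned medium after compound addition.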 Type of experiment: functional. On the technique in general: A reporter such as luciferase makes a cellular process visible.
Another experiment deals with T1, Protein skinhead-1 (Caenorhabditis elegans, UniProt P34707).
T1 sequence (P34707 whole entry): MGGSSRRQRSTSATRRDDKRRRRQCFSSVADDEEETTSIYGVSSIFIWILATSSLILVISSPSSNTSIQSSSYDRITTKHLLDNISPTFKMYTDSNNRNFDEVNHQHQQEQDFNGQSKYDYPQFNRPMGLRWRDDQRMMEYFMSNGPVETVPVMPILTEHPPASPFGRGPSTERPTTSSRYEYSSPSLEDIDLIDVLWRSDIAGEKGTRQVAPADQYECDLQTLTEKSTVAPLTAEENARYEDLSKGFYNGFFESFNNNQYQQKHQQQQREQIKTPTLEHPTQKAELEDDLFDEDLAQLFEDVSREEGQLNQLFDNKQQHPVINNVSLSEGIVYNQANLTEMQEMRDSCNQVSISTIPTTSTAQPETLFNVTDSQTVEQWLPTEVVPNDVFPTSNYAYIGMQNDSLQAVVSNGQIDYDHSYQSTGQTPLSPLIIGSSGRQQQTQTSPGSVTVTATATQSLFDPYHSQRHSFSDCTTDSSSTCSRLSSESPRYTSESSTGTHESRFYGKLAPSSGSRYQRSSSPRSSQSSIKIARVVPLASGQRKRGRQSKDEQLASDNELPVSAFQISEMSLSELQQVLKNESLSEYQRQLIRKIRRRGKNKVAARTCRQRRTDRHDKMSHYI
Type of experiment: functional.

Experiment [4] concerns BJ. Nature of the experiment: BJ-TERT-LT-ST fibroblast viability loss – cell-based, RAS-independent, luminescence, dose response (AID 1935).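 Further: BJ fibroblasts immortalized with TERT plus LT and ST oncogenes.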 Type of experiment: functional. The note with it: Homo sapiens.
A short description of experiment [5]: DRD fibroblast viability loss – cell-based, non-viral oncogenic, luminescence, dose response (AID 1934). Type of experiment: functional. The note with it: Homo sapiens.
The test system of experiment [6] is BJ. In words: BJ-TERT fibroblast viability loss – cell-based, RAS-independent, luminescence, dose response (AID 1933). Type of experiment: functional. The note with it: Homo sapiens.
Experiment [7] deals with BJ. In words: cells. Type of experiment: functional, cell-based. The note with it: Homo sapiens.
The target in experiment [8] is T2, High affinity choline transporter 1 (Homo sapiens, UniProt Q9GZV3).
T2 sequence (Q9GZV3 whole entry): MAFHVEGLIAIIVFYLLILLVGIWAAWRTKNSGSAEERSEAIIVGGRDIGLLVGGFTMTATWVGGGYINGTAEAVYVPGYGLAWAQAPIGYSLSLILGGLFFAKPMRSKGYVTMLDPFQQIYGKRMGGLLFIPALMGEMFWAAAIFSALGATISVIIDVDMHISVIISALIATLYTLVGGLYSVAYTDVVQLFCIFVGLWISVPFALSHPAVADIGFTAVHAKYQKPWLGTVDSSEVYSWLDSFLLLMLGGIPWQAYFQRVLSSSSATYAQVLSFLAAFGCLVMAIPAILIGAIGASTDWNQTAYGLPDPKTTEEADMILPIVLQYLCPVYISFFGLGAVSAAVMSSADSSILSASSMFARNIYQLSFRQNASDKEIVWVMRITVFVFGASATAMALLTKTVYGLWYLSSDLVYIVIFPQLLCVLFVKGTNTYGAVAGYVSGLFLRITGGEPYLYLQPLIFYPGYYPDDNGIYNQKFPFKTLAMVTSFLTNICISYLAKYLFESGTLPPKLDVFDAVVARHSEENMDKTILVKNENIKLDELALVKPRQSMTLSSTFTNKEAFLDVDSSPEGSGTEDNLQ
In words: human choline transporter blockers, potency – cell-based, 5-point CRC, membrane potential dye, dose response (AID 504840). Type of experiment: functional.

Experiment [9] addresses T3, Microphthalmia-associated transcription factor (Homo sapiens, UniProt O75030).
T3 sequence (O75030 whole entry): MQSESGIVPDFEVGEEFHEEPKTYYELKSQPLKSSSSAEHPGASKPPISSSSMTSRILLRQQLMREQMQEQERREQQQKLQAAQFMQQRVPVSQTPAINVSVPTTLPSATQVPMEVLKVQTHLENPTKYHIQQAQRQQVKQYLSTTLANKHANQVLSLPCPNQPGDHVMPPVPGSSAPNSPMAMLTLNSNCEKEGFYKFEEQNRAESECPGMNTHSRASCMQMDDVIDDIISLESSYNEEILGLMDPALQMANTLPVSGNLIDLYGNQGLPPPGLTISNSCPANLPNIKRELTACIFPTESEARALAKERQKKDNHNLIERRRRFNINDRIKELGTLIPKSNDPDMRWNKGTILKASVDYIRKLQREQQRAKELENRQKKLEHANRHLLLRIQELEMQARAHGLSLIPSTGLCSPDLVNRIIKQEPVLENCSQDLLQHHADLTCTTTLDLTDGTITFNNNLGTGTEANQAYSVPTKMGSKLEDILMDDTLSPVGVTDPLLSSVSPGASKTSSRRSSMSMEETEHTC
Nature of the experiment: reducers of TRPM1 reporter luminescence, concentration series – cell-based, SK-MEL-5, cherry-picked, set 3, MITF inhibitor project, dose response (AID 493073).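 Further: SK-MEL-5 melanoma cells with luciferase driven by the MITF target TRPM1 promoter.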 Type of experiment: functional.

Experiment [10] is described as follows: luciferase reporter signal suppression in cells – H4 neuroglioma cells, luminescence, dose response (AID 1990). Type of experiment: functional, cell-based.
The nature of experiment [11]: Luminescence Cell-Based Dose Response HTS to Identify Inhibitors of 5'UTR Stem-Loop Driven Prion Protein mRNA Translation in H4 Neuroglioblastoma Cells. [Related pubchem assays: 1827 (Project Summary), 1813 (Primary HTS)]. Type of experiment: functional.
Experiment [12] can be described thus: alpha-synuclein stem-loop luciferase translation blockers – H4 neuroglioma cells, luminescence, confirmation (AID 1988). Type of experiment: functional, cell-based.
The nature of experiment [13]: Luminescence Cell-Based Dose Confirmation HTS to Identify Activators of 5'UTR Stem-Loop Driven Alpha-Synuclein mRNA Translation in H4 Neuroglioblastoma Cells. [Related pubchem assays: 1829 (Project Summary), 1814 (Primary HTS)]. Type of experiment: functional.
Experiment [14] in a line: Luminescence Cell-Based Dose Response HTS to Identify Activators of Luciferase Translation or Activity in H4 […] Cells. [Related pubchem assays: 1829 (Project Summary), 1814 (Primary HTS)]. Type of experiment: functional.
The target of experiment [15] is T4, RNA-binding protein pos-1 (Caenorhabditis elegans, UniProt G5EF15).
T4 sequence (G5EF15 whole entry): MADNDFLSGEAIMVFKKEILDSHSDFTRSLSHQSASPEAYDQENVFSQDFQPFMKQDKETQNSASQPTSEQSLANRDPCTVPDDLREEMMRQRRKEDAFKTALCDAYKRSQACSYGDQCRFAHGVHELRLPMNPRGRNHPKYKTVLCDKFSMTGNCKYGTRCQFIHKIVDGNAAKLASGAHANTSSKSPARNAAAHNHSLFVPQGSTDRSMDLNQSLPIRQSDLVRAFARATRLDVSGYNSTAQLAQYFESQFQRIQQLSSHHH
Nature of the experiment: disruptors of C. elegans POS-1 RNA interaction – biochemical, fluorescence polarization, dose response (AID 1964).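 Further: purified POS-1 fused to maltose binding protein made in E. coli; potency of compounds blocking POS-1 binding to fluorescent RNA.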 In general terms: In fluorescence polarisation assays a small probe gives low polarisation when free and higher when bound to something large.

Another experiment deals with H4. Nature of the experiment: Luminescence Cell-Based Dose Response HTS to Identify Activators of 5'UTR Stem-Loop Driven Prion Protein mRNA Translation in H4 Neuroglioblastoma Cells. [Related pubchem assays: 1829 (Project Summary), 1814 (Primary HTS)]. Type of experiment: functional. The note with it: Homo sapiens.
Experiment [16] has as its target T5, Zinc finger protein mex-5 (Caenorhabditis elegans, UniProt Q9XUB2).
T5 sequence (Q9XUB2 whole entry): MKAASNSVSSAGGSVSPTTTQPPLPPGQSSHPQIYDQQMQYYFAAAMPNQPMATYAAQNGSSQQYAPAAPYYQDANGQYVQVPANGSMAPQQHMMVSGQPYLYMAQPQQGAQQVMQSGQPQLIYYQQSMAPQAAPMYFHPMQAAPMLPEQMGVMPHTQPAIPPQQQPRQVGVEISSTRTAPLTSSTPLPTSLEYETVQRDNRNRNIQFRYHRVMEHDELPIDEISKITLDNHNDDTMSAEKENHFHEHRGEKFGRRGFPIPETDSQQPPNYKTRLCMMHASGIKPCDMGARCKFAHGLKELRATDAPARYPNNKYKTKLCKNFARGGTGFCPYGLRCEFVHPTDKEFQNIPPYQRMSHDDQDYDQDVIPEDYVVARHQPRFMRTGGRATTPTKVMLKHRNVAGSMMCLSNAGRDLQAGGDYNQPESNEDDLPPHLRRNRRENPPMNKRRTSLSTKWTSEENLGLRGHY
In words: potency of MEX-5 RNA-binding blockers – biochemical, C. elegans, fluorescence polarization, dose response (AID 1960).

Experiment [17] can be described thus: microbe, parasite or virus in culture. Type of experiment: functional. The note with it: Mycobacterium tuberculosis.

Each structure is given as a SMILES string. Calls of active or inactive are those of the source. For most assays here, no stated cut-off is given here; in the data, actives have a measured EC50 and inactives only a lower limit. A value given as a limit tells only on which side of the number the result lay.

For the compound `COc1ccccc1N/C=C/c1onc(C)c1[N+](=O)[O-]`, the figures for the half-maximal activity concentration (AC50) in [1], in experiment [2] and in [3] were 4.75 µM (active), > 52 µM (inactive) and 3.4 µM (active), respectively.

Regarding `CC(C)CC(=O)Nc1ccc(Nc2ccccc2)cc1`, the IC50 (in general, the concentration at which inhibition is half-maximal) on Protein skinhead-1 was > 100 µM (inactive).

For `Cc1cc(C)c2c(NC(=O)CCl)nn(C)c2n1`, the EC50 – broadly, the concentration at which the effect is half-maximal – is > 150 µM (inconclusive) in the experiment with BJ [4], 29.2 µM (active) in [5], 28.7 µM (active) in the experiment on BJ [6] and > 150 µM (not active) with BJ [7].

Consider `O=C(c1ccc(O)cc1)c1ccc(Cl)cc1`, for which the IC50 in [8] was 11 µM (active).

Turning to `CC1(C(=O)N2CCC(CC3CC(c4ccc(Cl)cc4)=NO3)(C(=O)NCC3CCCCC3)CC2)CC1` (stereo not drawn), the IC50 in experiment [8] was 6.92 µM (active).

With `CC(=O)N(C1=NCCCS1)c1ccc(F)cc1`, the IC50 at Protein skinhead-1 is > 100 µM (inactive).

Consider `O=C(Nc1nc2cc3c(cc2s1)OCO3)C1=COCCO1`, for which the AC50 (in general, the midpoint of the concentration-response curve, whichever way the signal moves) in [9] was 3.77 µM (active). For the same compound, the EC50 is 2.39 µM (inconclusive) in experiment [10], 6.64 µM (active) in [11] and 1.22 µM (active) in experiment [12].

For the compound `Brc1ccc(-c2cn3ccccc3n2)s1`, the IC50 at Protein skinhead-1 is 12.7 µM (active).

`Cc1ccc2nc3sc(C(=O)N4CCCc5ccccc54)c(N)c3cc2c1`: the half-maximal effective concentration (EC50) is > 120 µM (not active) in experiment [13]; 7.55 µM (active) in [14]; > 300 µM (not active) in experiment [15]; > 120 µM (not active) with H4; > 300 µM (inconclusive) in [16].

Take `COc1cc2nc(C3CC3)n(NC(=O)c3ccc(Cl)cc3)c(=O)c2cc1OC`: on Protein skinhead-1, the IC50 was > 100 µM (inactive).

Regarding `Cc1ccc(/C=C(\NC(=O)c2ccc(C)cc2)c2n[nH]c(S)n2)cc1`, the CC50 in experiment [17] was > 40 µM (active).
